Data from ChEMBL document CHEMBL3217524, “The anti-tumor antibiotic PD 113,271 binds to microtubule-associated protein 1B (MAP1B)” (Medchemcomm, 2011).
Converted amounts (≈) assume the structure as drawn. The source made the active and inactive calls. No cut-off for these calls is given here.

Tests used:
[1] = molecular target: Ribosomal L1 domain-containing protein 1 (Homo sapiens) (UniProt O76021); assay: Binding affinity to human ribosomal L1 domain containing protein (309 to 432) expressed in T7 phage after 1 hr by ELISA
[2] = molecular target: T1, Microtubule-associated protein 1B (Homo sapiens, UniProt P46821); assay: Binding affinity to human MAP1B (582 to 705) expressed in T7 phage after 1 hr by ELISA
T1 sequence (P46821 2-2206 limits assumed): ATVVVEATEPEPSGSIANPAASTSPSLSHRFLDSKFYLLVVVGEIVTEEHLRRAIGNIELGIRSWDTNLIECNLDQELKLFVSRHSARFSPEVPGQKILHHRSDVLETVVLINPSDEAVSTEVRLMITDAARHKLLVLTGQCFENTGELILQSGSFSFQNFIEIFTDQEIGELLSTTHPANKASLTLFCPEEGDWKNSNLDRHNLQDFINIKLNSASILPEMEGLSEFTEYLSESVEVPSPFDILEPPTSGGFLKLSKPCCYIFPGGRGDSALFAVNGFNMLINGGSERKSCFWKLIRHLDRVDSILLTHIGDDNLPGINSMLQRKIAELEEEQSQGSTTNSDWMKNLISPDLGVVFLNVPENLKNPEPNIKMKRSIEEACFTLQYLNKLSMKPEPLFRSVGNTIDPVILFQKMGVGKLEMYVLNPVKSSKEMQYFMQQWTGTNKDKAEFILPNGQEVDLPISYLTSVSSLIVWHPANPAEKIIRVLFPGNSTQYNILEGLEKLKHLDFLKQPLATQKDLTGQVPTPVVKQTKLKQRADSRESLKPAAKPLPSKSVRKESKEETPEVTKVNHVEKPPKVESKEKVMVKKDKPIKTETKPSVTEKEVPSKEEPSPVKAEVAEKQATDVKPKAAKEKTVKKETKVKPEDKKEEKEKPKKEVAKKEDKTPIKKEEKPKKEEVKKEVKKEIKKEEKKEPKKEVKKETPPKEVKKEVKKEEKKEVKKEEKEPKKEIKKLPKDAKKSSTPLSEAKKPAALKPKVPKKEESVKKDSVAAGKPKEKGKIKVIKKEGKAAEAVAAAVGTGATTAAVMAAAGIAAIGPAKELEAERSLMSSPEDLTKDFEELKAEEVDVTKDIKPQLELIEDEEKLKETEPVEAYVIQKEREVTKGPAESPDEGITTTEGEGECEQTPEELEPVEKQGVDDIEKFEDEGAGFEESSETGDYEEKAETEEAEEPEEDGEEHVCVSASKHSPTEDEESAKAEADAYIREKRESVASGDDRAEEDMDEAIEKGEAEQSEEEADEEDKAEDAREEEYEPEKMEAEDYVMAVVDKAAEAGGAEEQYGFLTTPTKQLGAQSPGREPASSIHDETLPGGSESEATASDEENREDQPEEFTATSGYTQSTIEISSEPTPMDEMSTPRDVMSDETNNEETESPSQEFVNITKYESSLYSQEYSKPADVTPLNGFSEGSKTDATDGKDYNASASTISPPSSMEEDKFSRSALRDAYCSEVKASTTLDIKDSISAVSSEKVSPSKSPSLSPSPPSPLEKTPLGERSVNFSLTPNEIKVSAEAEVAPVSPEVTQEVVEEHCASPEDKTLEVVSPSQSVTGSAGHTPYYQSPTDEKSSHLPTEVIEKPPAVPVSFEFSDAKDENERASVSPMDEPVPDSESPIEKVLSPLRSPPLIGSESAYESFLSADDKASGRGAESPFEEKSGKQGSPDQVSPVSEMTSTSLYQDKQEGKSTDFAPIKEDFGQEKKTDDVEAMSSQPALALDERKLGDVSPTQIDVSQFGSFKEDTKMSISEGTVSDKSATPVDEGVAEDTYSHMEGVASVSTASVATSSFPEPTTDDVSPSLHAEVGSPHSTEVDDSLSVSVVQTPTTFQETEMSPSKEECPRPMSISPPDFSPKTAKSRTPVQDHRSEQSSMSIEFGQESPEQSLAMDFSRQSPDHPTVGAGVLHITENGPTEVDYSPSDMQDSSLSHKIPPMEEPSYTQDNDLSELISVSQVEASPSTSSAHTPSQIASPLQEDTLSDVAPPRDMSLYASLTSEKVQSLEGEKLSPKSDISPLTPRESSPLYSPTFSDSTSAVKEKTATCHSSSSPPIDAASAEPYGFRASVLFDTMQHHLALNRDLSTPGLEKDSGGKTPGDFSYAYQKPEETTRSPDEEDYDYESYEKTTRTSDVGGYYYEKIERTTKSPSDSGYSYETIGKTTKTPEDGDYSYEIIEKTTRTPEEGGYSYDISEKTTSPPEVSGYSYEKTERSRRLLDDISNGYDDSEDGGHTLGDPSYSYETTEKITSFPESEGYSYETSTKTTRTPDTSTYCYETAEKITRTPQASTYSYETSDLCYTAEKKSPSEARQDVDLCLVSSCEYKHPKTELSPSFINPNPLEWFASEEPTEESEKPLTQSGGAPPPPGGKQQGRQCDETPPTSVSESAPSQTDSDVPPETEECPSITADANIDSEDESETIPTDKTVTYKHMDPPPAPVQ
T1 sequence (P46821 2207-2468 limits assumed): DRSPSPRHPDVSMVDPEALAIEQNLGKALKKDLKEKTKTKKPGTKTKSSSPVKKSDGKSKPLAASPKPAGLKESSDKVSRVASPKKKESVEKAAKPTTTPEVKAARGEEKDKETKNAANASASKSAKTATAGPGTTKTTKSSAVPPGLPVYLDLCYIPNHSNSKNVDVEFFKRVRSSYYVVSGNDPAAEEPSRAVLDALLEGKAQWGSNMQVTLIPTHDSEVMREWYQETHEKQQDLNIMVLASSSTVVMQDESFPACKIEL

[3] = system: Ehrlich; assay: Inhibition of topoisomerse-2 in mouse EAC cells; assay type: cell-based
[4] = molecular target: Microtubule-associated protein 1B (Rattus norvegicus) (UniProt P15205); assay: Binding affinity to MAP1B in rat PC12 cells after 2 hrs by Western blotting analysis; assay type: cell-based; details: PC-12
Microtubule-associated protein 1B (Rattus norvegicus), sequence (P15205 whole entry): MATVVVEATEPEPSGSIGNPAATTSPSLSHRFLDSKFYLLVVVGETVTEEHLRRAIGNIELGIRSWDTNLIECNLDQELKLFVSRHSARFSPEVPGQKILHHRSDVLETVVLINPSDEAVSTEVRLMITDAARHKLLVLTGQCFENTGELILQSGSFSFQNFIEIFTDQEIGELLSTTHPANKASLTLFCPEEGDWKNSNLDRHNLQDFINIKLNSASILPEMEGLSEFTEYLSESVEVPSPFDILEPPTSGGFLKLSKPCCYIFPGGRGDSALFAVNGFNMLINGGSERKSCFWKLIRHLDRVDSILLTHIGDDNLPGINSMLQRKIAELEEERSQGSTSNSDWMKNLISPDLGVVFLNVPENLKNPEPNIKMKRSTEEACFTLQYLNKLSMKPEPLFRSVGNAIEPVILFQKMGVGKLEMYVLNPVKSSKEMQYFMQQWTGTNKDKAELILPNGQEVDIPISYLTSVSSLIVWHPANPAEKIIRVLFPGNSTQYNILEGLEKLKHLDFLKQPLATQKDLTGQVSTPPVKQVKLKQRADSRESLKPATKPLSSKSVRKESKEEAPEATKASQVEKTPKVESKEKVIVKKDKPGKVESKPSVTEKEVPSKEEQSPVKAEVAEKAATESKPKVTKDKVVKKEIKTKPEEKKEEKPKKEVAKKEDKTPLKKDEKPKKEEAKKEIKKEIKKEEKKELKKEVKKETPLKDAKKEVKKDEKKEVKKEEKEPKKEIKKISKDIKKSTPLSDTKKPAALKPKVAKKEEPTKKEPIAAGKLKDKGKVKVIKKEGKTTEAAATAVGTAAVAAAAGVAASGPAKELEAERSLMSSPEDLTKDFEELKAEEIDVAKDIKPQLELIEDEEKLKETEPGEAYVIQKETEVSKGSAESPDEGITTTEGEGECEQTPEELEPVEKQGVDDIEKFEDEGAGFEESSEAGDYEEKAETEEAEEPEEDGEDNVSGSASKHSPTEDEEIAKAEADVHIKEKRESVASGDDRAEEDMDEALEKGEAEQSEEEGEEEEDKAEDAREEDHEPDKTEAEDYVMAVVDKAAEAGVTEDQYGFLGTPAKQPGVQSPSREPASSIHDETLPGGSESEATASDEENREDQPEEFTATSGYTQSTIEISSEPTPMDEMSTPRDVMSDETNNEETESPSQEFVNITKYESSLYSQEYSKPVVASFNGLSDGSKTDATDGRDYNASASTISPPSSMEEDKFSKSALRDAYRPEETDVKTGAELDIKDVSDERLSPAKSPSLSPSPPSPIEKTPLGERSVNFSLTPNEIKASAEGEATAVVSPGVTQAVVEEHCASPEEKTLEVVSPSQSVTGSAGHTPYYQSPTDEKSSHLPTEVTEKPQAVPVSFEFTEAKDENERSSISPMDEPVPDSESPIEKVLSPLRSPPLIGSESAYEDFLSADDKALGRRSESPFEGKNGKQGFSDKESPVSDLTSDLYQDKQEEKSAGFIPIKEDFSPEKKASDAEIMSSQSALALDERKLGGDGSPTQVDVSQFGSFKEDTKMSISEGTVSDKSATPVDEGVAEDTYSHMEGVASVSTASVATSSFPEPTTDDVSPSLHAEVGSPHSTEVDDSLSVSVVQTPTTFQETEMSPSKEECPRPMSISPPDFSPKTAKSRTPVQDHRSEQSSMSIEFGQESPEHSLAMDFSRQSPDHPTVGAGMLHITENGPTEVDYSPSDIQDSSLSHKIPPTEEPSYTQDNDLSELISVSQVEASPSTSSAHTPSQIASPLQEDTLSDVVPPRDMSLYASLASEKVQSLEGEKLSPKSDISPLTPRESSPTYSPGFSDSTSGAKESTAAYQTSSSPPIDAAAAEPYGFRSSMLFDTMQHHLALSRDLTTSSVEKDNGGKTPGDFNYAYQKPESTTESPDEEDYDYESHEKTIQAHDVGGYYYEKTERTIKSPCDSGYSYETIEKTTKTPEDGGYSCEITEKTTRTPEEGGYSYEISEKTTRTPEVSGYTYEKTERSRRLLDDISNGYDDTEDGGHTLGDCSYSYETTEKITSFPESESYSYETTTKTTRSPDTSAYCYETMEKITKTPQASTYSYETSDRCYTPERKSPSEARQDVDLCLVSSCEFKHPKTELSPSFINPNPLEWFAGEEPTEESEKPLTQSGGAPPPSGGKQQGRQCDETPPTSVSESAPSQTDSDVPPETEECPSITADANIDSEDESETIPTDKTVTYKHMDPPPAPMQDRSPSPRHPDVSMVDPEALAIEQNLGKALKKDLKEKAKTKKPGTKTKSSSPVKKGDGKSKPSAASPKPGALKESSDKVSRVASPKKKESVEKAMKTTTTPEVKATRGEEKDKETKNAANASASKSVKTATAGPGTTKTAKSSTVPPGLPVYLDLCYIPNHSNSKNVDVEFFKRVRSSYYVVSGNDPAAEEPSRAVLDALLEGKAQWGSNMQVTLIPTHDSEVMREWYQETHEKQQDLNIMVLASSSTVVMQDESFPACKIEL

[5] = system: L1210; assay: Cytotoxicity against mouse L1210 cells; assay type: functional, cell-based
[6] = molecular target: T1, Microtubule-associated protein 1B; assay: Binding affinity to MAP1B in human MCF7 cells assessed as protein complex at 1 uM after 24 hrs by DAPI staining-based immunofluorescence microscopy relative to control; assay type: cell-based
[7] = Cytotoxicity against human HCT8 cells; assay type: functional, cell-based; details: HCT-8
[8] = molecular target: T1, Microtubule-associated protein 1B; assay: Binding affinity to MAP1B in human MCF7 cells assessed as protein localization around perinuclear region at 1 uM after 24 hrs by DAPI staining-based immunofluorescence microscopy relative to control; assay type: cell-based
[9] = molecular target: T1, Microtubule-associated protein 1B; assay: Binding affinity to human recombinant MAP1B-HBR (589 to 790) expressed in Escherichia coli BL21(DE3) assessed as inhibition of MAP1B-HBR-tubulin interaction at 1 to 20 uM by surface plasmon resonance analysis
[10] = molecular target: T1, Microtubule-associated protein 1B; assay: Binding affinity to human recombinant MAP1B-HBR (589 to 790) expressed in Escherichia coli BL21(DE3) by surface plasmon resonance analysis
[11] = Inhibition of PP2A (unknown origin) by spectrophotometry; design: species or system Homo sapiens

| SMILES | Activity [1] | Activity [2] | MIC [3] | IC50 [7] | further results |
| --- | --- | --- | --- | --- | --- |
| O=C(CCCC[C@@H]1SC[C@@H]2NC(=O)N[C@@H]21)NCCOCCn1cc(COCCOCCOc2ccc(COP(=O)(O)O)cc2)nn1 | Active | inactive |  |  |  |
| C[C@@](O)(/C=C/[C@@H]1OC(=O)C=C[C@@H]1O)[C@@H](C[C@@H](O)\C=C/C=C\C=C\CO)OP(=O)(O)O |  |  | 12.5 µM (≈ 5.58 µg/mL) | 9000 nM | Activity [4]: Active; IC50 [5]: 1800 nM; Activity [6]: Active; Activity [8]: Active; Activity [9]: Active |
| C[C@@](O)(/C=C/[C@@H]1OC(=O)C=C[C@@H]1OCc1ccc(OCCOCCOCc2cn(CCOCCNC(=O)CCCC[C@@H]3SC[C@@H]4NC(=O)N[C@@H]43)nn2)cc1)[C@@H](C[C@@H](O)\C=C/C=C\C=C\CO)OP(=O)(O)O | Active | Active |  |  | Kd [10]: 210 nM |
| C[C@@](O)(/C=C/[C@H]1CC=CC(=O)O1)[C@@H](C[C@@H](O)\C=C/C=C\C=C\CO)OP(=O)(O)O [FOSTRIECIN] |  |  | 50 µM (≈ 21.5 µg/mL) | 5100 nM | IC50 [11]: 1.5 nM |
